Reference: PMC10669625 (Biomedicines, 2023)

Assays:
[1] = design: method as in PMID 9682146, PMID 9654110; settings: after oral administration; cited from earlier work
[2] = design: method as in PMID 30845345; settings: mice; oral and inhalation intake; within 30 min post administration; cited from earlier work
[3] = Limonene exhalation kinetics in breath (Breath Biopsy, GC-MS) after ingestion of 100 mg limonene; settings: for Cmax (ng) median [IQR]: 100 mg limonene oral, overnight fast
[4] = Breath limonene by selected ion flow tube mass spectrometry (SIFT-MS), one 15 s exhalation; assay type: in vivo; settings: unpublished data
[5] = design: method as in PMID 20661827; settings: cited from earlier work

C=C(C)[C@H]1CC=C(C)CC1 [limonene]
Distribution volume [1]: greater than total body water
Organ distribution [2]: majority of limonene found in the liver
Limonene spike in breath after administration compared to baseline ([3]; all subjects, 100 mg limonene): > 100 fold
Slope (rate of elimination) ([3]; breath, semi-logarithmic scale, control group): −0.027 [−0.031–−0.023]
AUC (0–90 min) median [IQR] ([3]; breath, cirrhosis group): 121,437 [57,921–202,733] ng × min/400 mL
Cmax (ng) median [IQR] ([3]; breath, cirrhosis group): 2077 [1051–4260] ng
AUC (0–90 min) median [IQR] ([3]; breath, control group): 27,107 [17,605–34,946] ng × min/400 mL
Cmax (ng) median [IQR] ([3]; breath, control group): 595 [361–903] ng
Cmax ([3]; case report subject DYL10297 (enrolled as control, suspected mild chronic liver disease), at 40 min): 2421 ng
Breath levels of limonene before administration [4]: a few
Increase of breath limonene after administration vs before [4]: > 1000 fold
Breath levels of limonene after administration ([4]; up to): 5–10 PPM
Average increase in adipose tissue ([5]; after 4 weeks of continuous exposure): 44 fold
Accumulation in adipose tissue ([5]; after a single dose): no accumulation
